Assay [1] deals with T1, HDAC3 (Homo sapiens, UniProt O15379).
T1 construct: purchased Reaction Biology Corp. (contract testing)
The assay is described as follows: Biochemical HDAC3 activity, fluorogenic p53 peptide (Reaction Biology). Particulars: fluorogenic p53 peptide RHKK(Ac)AMC. The text has this:
^2 Biochemical HDAC3 IC50 value, determined using a fluorogenic p53 peptide, detailed results depicted in Supplementary Figure 1 a.

The target in assay [2] is T2, HDAC10 (Homo sapiens, UniProt Q969S8).
T2 construct: host or cells: HeLa cells, stably transfected
T2 sequence (Q969S8 1-669): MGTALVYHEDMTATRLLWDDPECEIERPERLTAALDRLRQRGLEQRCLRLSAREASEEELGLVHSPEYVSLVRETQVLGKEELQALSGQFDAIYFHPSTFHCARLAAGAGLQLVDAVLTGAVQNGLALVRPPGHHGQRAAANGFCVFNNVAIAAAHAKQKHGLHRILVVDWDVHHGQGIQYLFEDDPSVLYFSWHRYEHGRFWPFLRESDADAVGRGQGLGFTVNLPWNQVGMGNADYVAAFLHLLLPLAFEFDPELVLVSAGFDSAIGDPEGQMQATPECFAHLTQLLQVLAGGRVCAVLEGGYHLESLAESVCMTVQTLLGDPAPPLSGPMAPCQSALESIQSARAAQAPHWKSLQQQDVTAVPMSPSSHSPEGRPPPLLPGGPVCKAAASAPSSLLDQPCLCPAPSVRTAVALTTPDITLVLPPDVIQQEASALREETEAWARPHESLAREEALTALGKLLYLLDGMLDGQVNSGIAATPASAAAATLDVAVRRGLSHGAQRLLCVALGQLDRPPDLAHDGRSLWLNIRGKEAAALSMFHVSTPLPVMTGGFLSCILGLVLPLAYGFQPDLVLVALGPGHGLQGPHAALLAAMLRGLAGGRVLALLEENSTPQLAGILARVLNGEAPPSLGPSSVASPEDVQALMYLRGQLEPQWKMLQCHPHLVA
Briefly: NanoBRET cellular target engagement assay. Particulars: HeLa cells. Type of assay: binding. The protocol:
HeLa cells, stably transfected with NanoBRET plasmids NanoLuc®-HDAC6 FL Fusion Vector and NanoLuc®-HDAC10 FL Fusion Vector (Promega, Madison, WI, USA) were seeded at 20,000 cells/well in white 96-well plates. Without further incubation, tracer (0.3 µM) and drugs were added in separate steps and plates were placed in a tissue culture incubator for 2 h. For NanoBRET quantification, plates were put at room temperature for 10 min. Nanoglow substrate, diluted in OptiMEM without phenol red, was added and measured within 10 min in an OPTIMA plate reader (460 nm emission for donor and 610LP filter for acceptor, BMG Labtech, Ortenberg, Germany). The BRET signal was calculated by the ratio of acceptor signal to donor signal.

T1 sequence (O15379 whole entry): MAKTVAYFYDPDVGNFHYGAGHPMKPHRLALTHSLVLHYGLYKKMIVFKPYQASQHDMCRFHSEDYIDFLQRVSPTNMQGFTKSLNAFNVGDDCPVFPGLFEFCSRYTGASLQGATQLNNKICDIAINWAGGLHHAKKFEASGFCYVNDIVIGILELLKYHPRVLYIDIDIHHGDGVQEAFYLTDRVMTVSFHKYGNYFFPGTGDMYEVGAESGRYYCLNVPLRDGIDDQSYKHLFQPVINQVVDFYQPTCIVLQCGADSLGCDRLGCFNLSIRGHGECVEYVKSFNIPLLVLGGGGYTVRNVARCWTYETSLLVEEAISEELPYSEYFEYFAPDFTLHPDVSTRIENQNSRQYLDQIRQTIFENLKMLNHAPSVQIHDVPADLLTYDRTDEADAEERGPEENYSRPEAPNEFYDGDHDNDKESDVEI
T1 sequence (Q9Y618 395-489 partner limits assumed): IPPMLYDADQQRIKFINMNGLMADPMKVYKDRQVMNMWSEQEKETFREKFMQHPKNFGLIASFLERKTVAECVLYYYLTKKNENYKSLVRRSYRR

`Cc1ccc(C(=O)NO)cc1NCc1ccccc1` [TH34, 3-(N-benzylamino)-4-methylbenzhydroxamic acid]: the IC50 in assay [1] turned out to be 78.3 ± 0.9 µM; in assay [2], 7.7 µM.

Values taken from PMC6063332 (Archives of Toxicology, 2018).
